For 20 molecules, IC50 results are on record in patent US8501755B2, “Tetrahydropyridothienopyrimidine compounds and methods of use thereof” (Bayer Intellectual Property GmbH, priority 2006, dated 2013).

What all share (assay type): cell-based
In one assay the test system is A431 cells. Briefly: In vitro tumor cell proliferation assay (Cell Titer-Glo) in A431 cells. The conditions noted are these: Homo sapiens, A-431, 72 h, A431 human epidermoid carcinoma overexpressing HER1; 72 hours exposure; read-out: IC50, activities in A431 cell lines. Summed up: (§1)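 Viability after 72 h drug exposure at 37 °C was read as CellTiter-Glo ATP luminescence, giving IC50. Cells (2.5×10^3/well, RPMI + 10% FBS) were compound-treated one day post-seeding, 0.1% DMSO final: A431 overexpresses HER1, N87 overexpresses HER2 and HER1.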
For orientation: ATP-based viability assays read luminescence as a measure of living cells.

The next assay relates to N87. Briefly: In vitro tumor cell proliferation assay (Cell Titer-Glo) in N87 cells. The conditions noted are these: N87 human gastric carcinoma overexpressing HER2 and HER1; 72 hours exposure; read-out: IC50, activities in N87 cell lines. Summed up: as §1
The subject of the next assay is H1975 cells. Briefly: In vitro tumor cell proliferation assay (Cell Titer-Glo) in H1975 cells. The conditions noted are these: NCI-H1975; H1975 human NSCLC expressing mutant HER1 (L858R,T790M); 72 hours exposure; read-out: IC50, activities in H 1975 cell lines. The essentials:
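After 72 h compound exposure at 37° C (top 10 uM down to 64 pM, 0.1% DMSO), viability of EGFR L858R/T790M-mutant H1975 cells was read as ATP luminescence.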

For orientation: IC50 means the concentration that gives 50% inhibition. Take `CC(C)CN(C)C/C=C/C(=O)N1CCc2c(sc3ncnc(Nc4ccc(OCc5ccccn5)c(Cl)c4)c23)C1` [Example 66, N-[3-chloro-4-(pyridin-2-ylmethoxy)phenyl]-7-{(2E)-4-[isobutyl(methyl)amino]but-2-enoyl}-5,6,7,8-tetrahydropyrido [4′,3′:4,5]thieno[2,3-d]pyrimidin-4-amine]: the figures for the IC50 with A431 cells, with N87 and in the assay with H1975 cells were 0.2 to 1 µM, less than 0.2 µM and 0.2 to 1 µM, respectively.

With `CC1CCCN(C/C=C/C(=O)N2CCc3c(sc4ncnc(Nc5ccc(OCc6ccccn6)c(Cl)c5)c34)C2)C1` (stereo not drawn) [Example 67, N-[3-chloro-4-(pyridin-2-ylmethoxy)phenyl]-7-[(2E)-4-(3-methylpiperidin-1-yl)but-2-enoyl]-5,6,7,8-tetrahydropyrido [4′,3′:4,5]thleno[2,3-d]pyrimidin-4-amine], the IC50 is 0.2 to 1 µM in the assay with A431 cells, less than 0.2 µM in the assay with N87 and 0.2 to 1 µM with H1975 cells.

On to `O=C(/C=C/CN1CCCCCC1)N1CCc2c(sc3ncnc(Nc4ccc(OCc5ccccn5)c(Cl)c4)c23)C1` [Example 68, 7-[(2E)-4-azepan-1-ylbut-2-enoyl]-N-[3-chloro-4-(pyridin-2-ylmethoxy)phenyl]-5,6,7,8-tetrahydropyrido [4′,3′:4,5]thieno[2,3-d]pyrimidin-4-amine], for which the IC50 in the assay with A431 cells is 0.2 to 1 µM; in the assay with N87 it was less than 0.2 µM; with H1975 cells, 0.2 to 1 µM.

As for `O=C(/C=C/CN1CCCC(CO)C1)N1CCc2c(sc3ncnc(Nc4ccc(F)c(Cl)c4)c23)C1` (stereo not drawn) [Example 69, {1-[(2E)-4-{4-[(3-chloro-4-fluorophenyl)amino]-5,8-dihydropyrido [4′,3′:4,5]thieno[2,3-d]pyrimidin-7(6H)-yl}-4-oxobut-2-en-1-yl]piperidin-3-yl}methanol], the IC50 with A431 cells is 0.2 to 1 µM; in the assay with N87, less than 0.2 µM; in the assay with H1975 cells, 0.2 to 1 µM.

On to `CCN(C/C=C/C(=O)N1CCc2c(sc3ncnc(Nc4ccc(OCc5ccccn5)c(Cl)c4)c23)C1)C(C)C` [Example 70, N-[3-chloro-4-(pyridin-2-ylmethoxy)phenyl]-7-{(2E)-4-[ethyl(isopropyl)amino]but-2-enoyl}-5,6,7,8-tetrahydropyrido [4′,3′:4,5]thieno[2,3-d]pyrimidin-4-amine], for which the IC50 was 1 to 10 µM in the assay with A431 cells, less than 0.2 µM in the assay on N87 and less than 0.2 µM with H1975 cells.

Take `CCN(CC)C/C=C/C(=O)N1CCc2c(sc3ncnc(Nc4ccc(OCc5cnccn5)c(Cl)c4)c23)C1` [Example 72, N-[3-chloro-4-(pyrazin-2-ylmethoxy)phenyl]-7-[(2E)-4-(diethylamino)but-2-enoyl]-5,6,7,8-tetrahydropyrido [4′,3′:4,5]thieno[2,3-d]pyrimidin-4-amine]: the results for the concentration for half-maximal inhibition (IC50) in the assay with A431 cells, in the assay on N87 and in the assay on H1975 cells were 1 to 10 µM, less than 0.2 µM and 0.2 to 1 µM, respectively.

For `CCN(CC)C/C=C/C(=O)N1CCc2c(sc3ncnc(Nc4ccc(OCc5cccc(C)n5)c(Cl)c4)c23)C1` [Example 73, N-{3-chloro-4-[(6-methylpyridin-2-yl)methoxy]phenyl}-7-[(2E)-4-(diethylamino)but-2-enoyl]-5,6,7,8-tetrahydropyrido [4′,3′:4,5]thieno[2,3-d]pyrimidin-4-amine], the 50% inhibitory concentration (IC50) in the assay with A431 cells is 1 to 10 µM; with N87 it was less than 0.2 µM; in the assay on H1975 cells, 1 to 10 µM.

As to `Cc1cccc(COc2ccc(Nc3ncnc4sc5c(c34)CCN(C(=O)/C=C/CN(C)C)C5)cc2Cl)n1` [Example 74, N-{3-chloro-4-[(6-methylpyridin-2-yl)methoxy]phenyl}-7-[(2E)-4-(dimethylamino)but-2-enoyl]-5,6,7,8-tetrahydropyrido [4′,3′:4,5]thieno[2,3-d]pyrimidin-4-amine], the half-inhibitory concentration (IC50) in the assay on A431 cells was 1 to 10 µM; in the assay with N87, less than 0.2 µM; in the assay with H1975 cells, 1 to 10 µM.

Regarding `Cc1cccc(COc2ccc(Nc3ncnc4sc5c(c34)CCN(C(=O)/C=C/CN3CCCCC3)C5)cc2Cl)n1` [Example 75, N-{3-chloro-4-[(6-methylpyridin-2-yl)methoxy]phenyl}-7-[(2E)-4-piperidin-1-ylbut-2-enoyl]-5,6,7,8-tetrahydropyrido [4′,3′:4,5]thieno[2,3-d]pyrimidin-4-amine], the IC50 with A431 cells is 1 to 10 µM; in the assay with N87, less than 0.2 µM; in the assay on H1975 cells, 0.2 to 1 µM.

`CCN(C)C/C=C/C(=O)N1CCc2c(sc3ncnc(Nc4ccc(OCc5cccc(C)n5)c(Cl)c4)c23)C1` [Example 76, N-{3-chloro-4-[(6-methylpyridin-2-yl)methoxy]phenyl}-7-{(2E)-4-[ethyl(methyl)amino]but-2-enoyl}-5,6,7,8-tetrahydropyrido [4′,3′:4,5]thieno[2.3-d]pyrimidin-4-amine]: the IC50 was 1 to 10 µM in the assay with A431 cells, less than 0.2 µM in the assay on N87 and 1 to 10 µM with H1975 cells.

With `Cc1cccc(COc2ccc(Nc3ncnc4sc5c(c34)CCN(C(=O)/C=C/CN(C)C(C)C)C5)cc2Cl)n1` [Example 77, N-{3-chloro-4-[(6-methylpyridin-2-yl)methoxy]phenyl}-7-{(2E)-4-[isopropyl(methyl)amino]but-2-enoyl}-5,6,7,8-tetrahydropyrido [4′,3′:4,5]thieno[2,3-d]pyrimidin-4-amine], the half-maximal inhibitory concentration (IC50) with A431 cells was 1 to 10 µM; in the assay with N87, less than 0.2 µM; in the assay on H1975 cells, 0.2 to 1 µM.

With `Cc1cccc(COc2ccc(Nc3ncnc4sc5c(c34)CCN(C(=O)/C=C/CN3CCCC3)C5)cc2Cl)n1` [Example 78, N-{3-chloro-4-[(6-methylpyridin-2-yl)methoxy]phenyl}-7-[(2E)-4-pyrrolidin-1-ylbut-2-enoyl]-5,6,7,8-tetrahydropyrido [4′,3′:4,5]thieno[2,3-d]pyrimidin-4-amine], the IC50 in the assay on A431 cells is 1 to 10 µM; with N87, less than 0.2 µM; in the assay with H1975 cells it was 1 to 10 µM.

On to `O=C(/C=C/CN1CCOCC1)N1CCc2c(sc3ncnc(Nc4ccc(OCc5cnccn5)c(Cl)c4)c23)C1` [Example 80, N-[3-chloro-4-(pyrazin-2-ylmethoxy)phenyl]-7-[(2E)-4-morpholin-4-ylbut-2-enoyl]-5,6,7,8-tetrahydropyrido [4′3′:4,5]thieno[2,3-d]pyrimidin-4-amine], for which the IC50 is 1 to 10 µM with A431 cells, less than 0.2 µM with N87 and 1 to 10 µM with H1975 cells.

On to `CCN(C)C/C=C/C(=O)N1CCc2c(sc3ncnc(Nc4ccc(OCc5cnccn5)c(Cl)c4)c23)C1` [Example 81, N-[3-chloro-4-(pyrazin-2-ylmethoxy)phenyl]-7-{(2E)-4-[ethyl(methyl)amino]but-2-enoyl}-5,6,7,8-tetrahydropyrido [4′,3′:4,5]thieno[2,3-d]pyrimidin-4-amine], for which the results for the IC50 with A431 cells, in the assay with N87 and in the assay on H1975 cells were 1 to 10 µM, less than 0.2 µM and 0.2 to 1 µM, respectively.

In the case of `CC(C)N(C)C/C=C/C(=O)N1CCc2c(sc3ncnc(Nc4ccc(OCc5cnccn5)c(Cl)c4)c23)C1` [Example 82, N-[3-chloro-4-(pyrazin-2-ylmethoxy)phenyl]-7-{(2E)-4-[isopropyl(methyl)amino]but-2-enoyl}-5,6,7,8-tetrahydropyrido [4′3′:4,5]thieno[2,3-d]pyrimidin-4-amine], the concentration for half-maximal inhibition (IC50) in the assay with A431 cells is 1 to 10 µM; in the assay on N87, less than 0.2 µM; in the assay on H1975 cells, 0.2 to 1 µM.

As for `O=C(/C=C/CN1CCCC1)N1CCc2c(sc3ncnc(Nc4ccc(OCc5cnccn5)c(Cl)c4)c23)C1` [Example 83, N-[3-chloro-4-(pyrazin-2-ylmethoxy)phenyl]-7-[(2E)-4-pyrrolidin-1-ylbut-2-enoyl]-5,6,7,8-tetrahydropyrido [4′3′:4,5]thieno[2,3-d]pyrimidin-4-amine], the IC50 in the assay on A431 cells is 1 to 10 µM; with N87 it was less than 0.2 µM; with H1975 cells it was 0.2 to 1 µM.

Turning to `Cc1cccc(COc2ccc(Nc3ncnc4sc5c(c34)CCN(C(=O)/C=C/CN3CCOCC3)C5)cc2Cl)n1` [Example 84, N-{3-chloro-4-[(6-methylpyridin-2-yl)methoxy]phenyl}-7-[(2E)-4-morpholin-4-ylbut-2-enoyl]-5,6,7,8-tetrahydropyrido [4′,3′:4,5]thieno[2,3-d]pyrimidin-4-amine], the IC50 in the assay with A431 cells is 1 to 10 µM; in the assay on N87, less than 0.2 µM; in the assay on H1975 cells it was 1 to 10 µM.

On to `CN(C)C/C=C/C(=O)N1CCc2c(sc3ncnc(Nc4ccc(OCc5cnccn5)c(Cl)c4)c23)C1` [Example 85, N-[3-chloro-4-(pyrazin-2-ylmethoxy)phenyl]-7-[(2E)-4-(dimethylamino)but-2-enoyl]-5,6,7,8-tetrahydropyrido [4′,3′:4,5]thieno[2,3-d]pyrimidin-4-amine], for which the IC50 in the assay on A431 cells is 0.2 to 1 µM; with N87 it was less than 0.2 µM; with H1975 cells, 0.2 to 1 µM.

On to `CCN(CC)C/C=C/C(=O)N1CCc2c(sc3ncnc(Nc4ccc(OCc5cccnc5)c(Cl)c4)c23)C1` [Example 86, N-[3-chloro-4-(pyridin-3-ylmethoxy)phenyl]-7-[(2E)-4-(diethylamino)but-2-enoyl]-5,6,7,8-tetrahydropyrido [4′,3′:4,5]thieno[2,3-d]pyrimidin-4-amine], for which the IC50 in the assay with A431 cells was 1 to 10 µM; in the assay with N87, less than 0.2 µM; in the assay on H1975 cells it was 0.2 to 1 µM.

Take `CN(C)C/C=C/C(=O)N1CCc2c(sc3ncnc(Nc4ccc(OCc5cccnc5)c(Cl)c4)c23)C1` [Example 87, N-[3-chloro-4-(pyridin-3-ylmethoxy)phenyl]-7-[(2E)-4-(dimethylamino)but-2-enoyl]-5,6,7,8-tetrahydropyrido [4′,3′:4,5]thieno[2,3-d]pyrimidin-4-amine]: the IC50 in the assay with A431 cells is 0.2 to 1 µM; in the assay with N87, less than 0.2 µM; with H1975 cells it was 0.2 to 1 µM.
